We go through ten substances from the OligoGym collection.

HELM strings list units from the 5' end as sugar, base in round brackets, then linkage (d deoxyribose, r ribose, m 2'-O-methyl, p phosphodiester). Strings are as the collection lists them; they lack the last nucleoside at the 3' end of the tested compound. [moe] = 2'-O-(2-methoxyethyl) (MOE); [sp] = phosphorothioate linkage; [m5C] = 5-methylcytosine

In this data set the target is GFAP. Briefly: mouse, dose not given. The following applies: ASO.
For “RNA1{[moe](T)[sp].[moe](G)p.[moe](G)p.[moe]([m5C])p.[moe](A)[sp].d(A)[sp].d([m5C])[sp].d(A)[sp].d(G)[sp].d(T)[sp].d(T)[sp].d(T)[sp].d([m5C])[sp].d([m5C])[sp].d(A)[sp].[moe](T)p.[moe](A)p.[moe](A)[sp].[moe]([m5C])}$$$$ (last 3' nucleoside missing)”, the 3 h FOB score worked out at 1 score 0-7.

As for “RNA1{[moe](T)[sp].[moe](G)p.[moe](G)p.[moe]([m5C])p.[moe](A)[sp].d(G)[sp].d(T)[sp].d(A)[sp].d(T)[sp].d(T)[sp].d(A)[sp].d([m5C])[sp].d([m5C])[sp].[moe](T)p.[moe]([m5C])p.[moe](T)[sp].[moe](A)}$$$$ (last 3' nucleoside missing)”, the 3 h FOB score came to 0 score 0-7.

Substance “RNA1{[moe](T)[sp].[moe](G)p.[moe](G)p.[moe]([m5C])p.[moe](A)[sp].d(G)[sp].d(T)[sp].d(A)[sp].d(T)[sp].d(T)[sp].d(A)[sp].d([m5C])[sp].d([m5C])[sp].d(T)[sp].d([m5C])[sp].[moe](T)p.[moe](A)p.[moe]([m5C])[sp].[moe](T)}$$$$ (last 3' nucleoside missing)” yielded a 3 h FOB score of 1 score 0-7.

Substance “RNA1{[moe](T)[sp].[moe](G)p.[moe](G)p.[moe]([m5C])p.[moe](A)p.[moe](G)p.d(T)[sp].d(A)[sp].d(T)[sp].d(T)[sp].d(A)[sp].d([m5C])[sp].d([m5C])[sp].d(T)[sp].d([m5C])[sp].d(T)[sp].[moe](A)p.[moe]([m5C])[sp].[moe](T)}$$$$ (last 3' nucleoside missing)” came in with a 3 h FOB score of 0 score 0-7.

“RNA1{[moe](T)[sp].[moe](G)p.[moe](G)p.[moe]([m5C])p.[moe](A)p.d(G)[sp].d(T)[sp].d(A)[sp].d(T)[sp].d(T)[sp].d(A)[sp].d([m5C])[sp].d([m5C])[sp].d(T)[sp].d([m5C])[sp].[moe](T)p.[moe](A)p.[moe]([m5C])[sp].[moe](T)}$$$$ (last 3' nucleoside missing)” had a 3 h FOB score of 1 score 0-7.

Consider “RNA1{[moe](T)[sp].[moe](G)p.[moe](G)p.[moe]([m5C])p.d(A)[sp].d(G)[sp].d(T)[sp].d(A)[sp].d(T)[sp].d(T)[sp].d(A)[sp].d([m5C])[sp].d([m5C])[sp].d(T)[sp].[moe]([m5C])p.[moe](T)p.[moe](A)p.[moe]([m5C])[sp].[moe](T)}$$$$ (last 3' nucleoside missing)”, for which the 3 h FOB score was 1 score 0-7.

With “RNA1{[moe](T)[sp].[moe](G)p.[moe](T)p.[moe](A)p.[moe](T)p.d(T)[sp].d(A)[sp].d(G)[sp].d(G)[sp].d(A)[sp].d(T)[sp].d([m5C])[sp].d([m5C])[sp].d([m5C])[sp].d(A)[sp].[moe](T)p.[moe]([m5C])p.[moe](T)[sp].[moe](A)}$$$$ (last 3' nucleoside missing)”, the 3 h FOB score stood at 4 score 0-7.

As for “RNA1{[moe](T)[sp].[moe](G)p.[moe](T)p.[moe](A)p.d(T)[sp].d(T)[sp].d(A)[sp].d(G)[sp].d(G)[sp].d(A)[sp].d(T)[sp].d([m5C])[sp].d([m5C])[sp].d([m5C])[sp].[moe](A)p.[moe](T)p.[moe]([m5C])p.[moe](T)[sp].[moe](A)}$$$$ (last 3' nucleoside missing)”, the 3 h FOB score is 3 score 0-7.

As for “RNA1{[moe](T)[sp].[moe](G)p.[moe](T)p.[moe](G)p.[moe](A)[sp].d(T)[sp].d(T)[sp].d(T)[sp].d(T)[sp].d([m5C])[sp].d([m5C])[sp].d([m5C])[sp].d([m5C])[sp].[moe](G)p.[moe](T)p.[moe]([m5C])[sp].[moe](T)}$$$$ (last 3' nucleoside missing)”, the 3 h FOB score was 0 score 0-7.

In the case of “RNA1{[moe](T)[sp].[moe](G)p.[moe](T)p.[moe](G)p.[moe](A)[sp].d(T)[sp].d(T)[sp].d(T)[sp].d(T)[sp].d([m5C])[sp].d([m5C])[sp].d([m5C])[sp].d([m5C])[sp].d(G)[sp].d(T)[sp].[moe]([m5C])p.[moe](T)p.[moe](T)[sp].[moe](T)}$$$$ (last 3' nucleoside missing)”, the 3 h FOB score amounted to 5 score 0-7.
